In patent US20230416225A1, “DIAMINOPYRIMIDINE CARBOXAMIDE INHIBITORS OF HPK1” (MERCK SHARP & DOHME LLC, priority 2020, published 2023):

Biological target: T1, Human HPK1, catalytic domain (Homo sapiens, UniProt Q92918)
T1 construct: purchased Carna
T1 sequence (Q92918 1-346): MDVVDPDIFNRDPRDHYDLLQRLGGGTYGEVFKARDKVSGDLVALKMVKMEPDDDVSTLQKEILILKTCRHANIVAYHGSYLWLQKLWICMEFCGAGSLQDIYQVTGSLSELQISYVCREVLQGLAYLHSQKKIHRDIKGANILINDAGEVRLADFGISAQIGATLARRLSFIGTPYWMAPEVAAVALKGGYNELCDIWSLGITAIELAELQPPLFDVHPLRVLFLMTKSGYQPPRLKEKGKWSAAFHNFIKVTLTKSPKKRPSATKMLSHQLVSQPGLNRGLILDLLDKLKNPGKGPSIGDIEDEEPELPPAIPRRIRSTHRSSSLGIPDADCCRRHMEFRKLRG
Assay: HPK1-SLP76 TR-FRET assay
Assay type: biochemical
Conditions: 75 pM HPK1, 10 uM ATP, 10 nM SLP76, 30 min compound pre-incubation

Row | Structure (SMILES) | IC50
1 | COc1cc2c(cc1Nc1ncc(C(N)=O)c(NCc3cccc(C(F)(F)F)c3)n1)CN(C)CC2 [Example 26-35, 2-[(6-methoxy-2-methyl-1,2,3,4-tetrahydroisoquinolin-7-yl)amino]-4-({[3-(trifluoromethyl)phenyl]methyl}amino)pyrimidine-5-carboxamide] | 52.8 nM
2 | NC(=O)c1cnc(Nc2cccc3ccccc23)nc1Nc1cccc2c1CCNC2=O [Example 25-14, 2-[(naphthalen-1-yl)amino]-4-[(1-oxo-1,2,3,4-tetrahydroisoquinolin-5-yl)amino]pyrimidine-5-carboxamide] | 136 nM
3 | NC(=O)c1cnc(Nc2ccc(OC(F)F)c(Cl)c2)nc1Nc1cccc2c1CCNC2=O [Example 25-21, 2-{[3-chloro-4-(difluoromethoxy)phenyl]amino}-4-[(1-oxo-1,2,3,4-tetrahydroisoquinolin-5-yl)amino]pyrimidine-5-carboxamide] | 45 nM
4 | COc1cc2c(cc1Nc1ncc(C(N)=O)c(Nc3cn(C)nc3C(F)(F)F)n1)CN(C)CC2 [Example 7-86, 2-((6-methoxy-2-methyl-1,2,3,4-tetrahydroisoquinolin-7-yl)amino)-4-((1-methyl-3-(trifluoromethyl)-1H-pyrazol-4-yl)amino)pyrimidine-5-carboxamide] | 11.8 nM
5 | COc1cc2c(cc1Nc1ncc(C(N)=O)c(Nc3cccc4c3CCN(C)C4)n1)CN(C)CC2 [Example 16-1, 2-((6-methoxy-2-methyl-1,2,3,4-tetrahydroisoquinolin-7-yl)amino)-4-((2-methyl-1,2,3,4-tetrahydroisoquinolin-5-yl)amino)pyrimidine-5-carboxamide] | 0.09 nM
6 | COc1cc2c(cc1Nc1ncc(C(N)=O)c(Nc3cccc4c3OC(C)(C)C4)n1)CN(C)CC2 [Example 7-14, 4-[(2,2-dimethyl-2,3-dihydro-1-benzofuran-7-yl)amino]-2-[(6-methoxy-2-methyl-1,2,3,4-tetrahydroisoquinolin-7-yl)amino]pyrimidine-5-carboxamide] | 0.19 nM
7 | COc1cc2c(cc1Nc1ncc(C(N)=O)c(Nc3ccccc3CC3CCOCC3)n1)CN(C)CC2 [Example 13-2, 2-[(6-methoxy-2-methyl-1,2,3,4-tetrahydroisoquinolin-7-yl)amino]-4-({2-[(oxan-4-yl)methyl]phenyl}amino)pyrimidine-5-carboxamide] | 0.92 nM
8 | COc1cc2c(cc1Nc1ncc(C(N)=O)c(Nc3ccccc3-c3ncco3)n1)CN(C)CC2 [Example 14-3, 2-[(6-methoxy-2-methyl-1,2,3,4-tetrahydroisoquinolin-7-yl)amino]-4-{[2-(1,3-oxazol-2-yl)phenyl]amino}pyrimidine-5-carboxamide] | 0.64 nM
9 | COc1cc2c(cc1Nc1ncc(C(N)=O)c(Nc3ccccc3Br)n1)CN(C1CC(OC)C1)CC2 (centres unmarked) [Example 9-9, 4-[(2-bromophenyl)amino]-2-{[6-methoxy-2-(3-methoxycyclobutyl)-1,2,3,4-tetrahydroisoquinolin-7-yl]amino}pyrimidine-5-carboxamide] | 3.27 nM
10 | COc1cc2c(cc1Nc1ncc(C(N)=O)c(Nc3cccc(CNC(=O)OC(C)(C)C)c3)n1)CN(C)CC2 [Example 2-1, tert-butyl {[3-({5-carbamoyl-2-[(6-methoxy-2-methyl-1,2,3,4-tetrahydroisoquinolin-7-yl)amino]pyrimidin-4-yl}amino)phenylmethyl} carbamate] | 1.59 nM
11 | COc1cc2c(cc1Nc1ncc(C(N)=O)c(Nc3ccccc3OC(C)C)n1)CN(C)CC2 [Example 7-111, 2-[(6-methoxy-2-methyl-1,2,3,4-tetrahydroisoquinolin-7-yl)amino]-4-({2-[(propan-2-yl)oxy]phenyl}amino)pyrimidine-5-carboxamide] | 0.26 nM
12 | COc1cc2c(cc1Nc1ncc(C(N)=O)c(Nc3ccccc3Br)n1)CN(C1CCOCC1)CC2 [Example 9-7, 4-[(2-bromophenyl)amino]-2-{[6-methoxy-2-(oxan-4-yl)-1,2,3,4-tetrahydroisoquinolin-7-yl]amino}pyrimidine-5-carboxamide] | 0.84 nM
13 | COc1cc2c(cc1Nc1ncc(C(N)=O)c(Nc3ccccc3C(=O)Nc3ccccc3)n1)CN(C)CC2 [Example 7-117, 2-((6-methoxy-2-methyl-1,2,3,4-tetrahydroisoquinolin-7-yl)amino)-4-((2-(phenylcarbamoyl)phenyl)amino) pyrimidine-5-carboxamide] | 54.8 nM
14 | N#CC1(c2ccc(Nc3ncc(C(N)=O)c(Nc4ccccc4CO)n3)cc2)CC1 [Example 7-108, 2-{[4-(1-cyanocyclopropyl)phenyl]amino}-4-{[2-(hydroxymethyl)phenyl]amino}py-rimidine-5-carboxamide] | 4.17 nM
15 | COc1cc2c(cc1Nc1ncc(C(N)=O)c(N[C@H]3CC[C@@H](N)CC3)n1)CN(C)CC2 [Example 26-5, 4-[(cis-4-aminocyclohexyl)amino]-2-[(6-methoxy-2-methyl-1,2,3,4-tetrahydroisoquinolin-7-yl)amino]pyrimidine-5-carboxamide] | 9.79 nM
16 | NC(=O)c1cnc(Nc2cccc3c2CCC3)nc1Nc1cccc2c1CCNC2=O [Example 25-34, 2-[(2,3-dihydro-1H-inden-4-yl)amino]-4-[(1-oxo-1,2,3,4-tetrahydroisoquinolin-5-yl)amino]pyrimidine-5-carboxamide] | 24.6 nM
17 | CC(C)(C#N)c1cccc(Nc2ncc(C(N)=O)c(Nc3cccc4c3CCNC4=O)n2)c1 [Example 25-3, 2-{[3-(2-cyanopropan-2-yl)phenyl]amino}-4-[(1-oxo-1,2,3,4-tetrahydroisoquinolin-5-yl)amino]pyrimidine-5-carboxamide] | 1.14 nM
18 | NC(=O)c1cnc(Nc2ccc(CC(F)(F)F)cc2)nc1Nc1cccc2c1CCNC2=O [Example 25-44, 4-[(1-oxo-1,2,3,4-tetrahydroisoquinolin-5-yl)amino]-2-{[4-(2,2,2-trifluoroethyl)phenyl]amino}pyrimidine-5-carboxamide] | 1.95 nM
19 | COC[C@H]1CCC[C@H]1Nc1nc(Nc2cc3c(cc2OC)CCN(C)C3)ncc1C(N)=O [Example 26-28, 4-{[(1R,2S)-2-(methoxymethyl)cyclopentyl]amino}-2-[(6-methoxy-2-methyl-1,2,3,4-tetrahydroisoquinolin-7-yl)amino]pyrimidine-5-carboxamide] | 4.92 nM
20 | COc1cc2c(cc1Nc1ncc(C(N)=O)c(Nc3ccccc3Br)n1)CN(C(=O)C1CCC1(F)F)CC2 (centres unmarked) [Example 12-10, 4-[(2-bromophenyl)amino]-2-{[2-(2,2-difluorocyclobutane-1-carbonyl)-6-methoxy-1,2,3,4-tetrahydroisoquinolin-7-yl]amino}pyrimidine-5-carboxamide] | 186 nM
21 | COc1cc2c(cc1Nc1ncc(C(N)=O)c(Nc3c(F)ccc(C)c3Cl)n1)CN(C)CC2 [Example 4-16] | 0.1 nM
22 | CC(C)(c1ccc(Nc2ncc(C(N)=O)c(Nc3cccc4c3CCNC4=O)n2)cc1)S(C)(=O)=O [Example 7-60, 2-({4-[2-(methylsulfonyl)propan-2-yl]phenyl}amino)-4-[(1-oxo-1,2,3,4-tetrahydroisoquinolin-5-yl)amino]pyrimidine-5-carboxamide] | 0.51 nM
23 | COc1cc2c(cc1Nc1ncc(C(N)=O)c(Nc3cccc4c3CCN(C(C)=O)C4)n1)CN(C)CC2 [Example 15-1, 4-[(2-acetyl-1,2,3,4-tetrahydroisoquinolin-5-yl)amino]-2-[(6-methoxy-2-methyl-1,2,3,4-tetrahydroisoquinolin-7-yl)amino]pyrimidine-5-carboxamide] | 0.48 nM
